Measurements reported in patent EP2439195B1, “NAPHTHALENE CARBOXAMIDE DERIVATIVES AS INHIBITORS OF PROTEIN KINASE AND HISTONE DEACETYLASE, PREPARATION METHODS AND USES THEREOF” (Shenzhen Chipscreen Biosciences, Ltd., priority 2009, dated 2010).

How the values were obtained:
Assay type in all cases: in vivo
[1] = tested on: human A549 lung cancer; experiment: Nude mice tumor transplanted from human A549 lung cancer (Example 51); conditions: for TGI (%): tumor growth inhibition
Procedure: Then the cultured A549 human lung cancer cells were implanted into the armpit of 50 mice. […] Each group had 8 mice. One group was treated with vehicle. One group was treated with Sutent, the positive control drug. […] Each group was dosed orally once a day for 24 days. Tumor volumes along with body weights were recorded twice per week. On the next day after 24 doses, the mice were killed, and tumors were weighed. The tumor growth inhibition of each group was calculated using the following formula: {[(the average tumor weight of control group)-(the average tumor weight of test group)]/(the average tumor weight of control group)}×100%.

[2] = tested on: human HCT-8 colon cancer; experiment: Nude mice tumor transplanted from human HCT-8 colon cancer (Example 52); conditions: for Tumor weight: killed after 20 doses; for TGI (%): tumor growth inhibition
Procedure: Female nu/nu mice of 18∼20g were fed by normal diet for 3 days. Then the cultured HCT-8 human colon cancer cells were implanted into the armpit of 50 mice. […] Each group had 8 mice. One group was treated with vehicle. One group was treated with Sutent, the positive control drug. […] Each group was dosed orally once a day for 24 days. Tumor volumes along with body weights were recorded twice per week. On the next day after 20 doses, the mice were killed, and tumors were weighed. The tumor growth inhibition of each group was calculated using the following formula: {[([…])} × 100%. [formula] The experimental results are shown in Table 6 and Figure 2.

[3] = tested on: SSMC7721 human liver cancer cells; experiment: Nude mice tumor transplanted from human SSMC7721 liver cancer (Example 53); conditions: for TGI (%): tumor growth inhibition
Procedure: Female nu/nu mice of 18∼20g were fed by normal diet for 3 days. Then the cultured SSMC7721 human liver cancer cells were implanted into the armpit of 50 mice. […] One group was treated with vehicle. One group was treated with Sutent, the positive control drug. […] Each group was dosed orally once a day for 24 days. […] The tumor growth inhibition of each group was calculated using the following formula: {[([…])} × 100%. [formula] The experimental results are shown in Table 7 and Figure 3.

[4] = tested on: human HCT-8 colon cancer; experiment: Nude mice tumor transplanted from human HCT-8 colon cancer (Example 54); conditions: for TGI (%): tumor growth inhibition
Procedure: (§1) Female nu/nu mice of 18∼20g were fed by normal diet for 3 days. Then the cultured HCT-8 human colon cancer cells were implanted into the armpit of 50 mice. […] Each group had 8 mice. One group was treated with vehicle. One group was treated with Sutent, the positive control drug. Two groups were treated with compound 33 at different concentrations. The other two groups were treated with compound 34 at different concentrations. Each group was dosed orally once a day for 20 days. […] The tumor growth inhibition of each group was calculated using the following formula: {[(the average tumor weight of control group)-(the average tumor weight of test group)]/(the average tumor weight of control group)} × 100%. [formula] The experimental results are shown in Table 8 and Figure 4.

[5] = tested on: human HCT-8 colon cancer; experiment: Nude mice tumor transplanted from human HCT-8 colon cancer (Example 55); conditions: 20 days; for TGI (%): tumor growth inhibition
Procedure: Female nu/nu mice of 18∼20g were fed by normal diet for 3 days. Then the cultured HCT-8 human colon cancer cells were implanted into the armpit of 50 mice. […] One group was treated with vehicle. One group was treated with Sutent, the positive control drug. Two groups were treated with compound 33 at different concentrations. The other two groups were treated with compound 37 at different concentrations. Compound 33 was administered twice a day with an interval of 6 hours. For other groups, administration was performed once a day. Each group was dosed orally for 20 days. […] The tumor growth inhibition of each group was calculated using the following formula: {[(the average tumor weight of control group)-(the average tumor weight of test group)]/(the average tumor weight of control group)} × 100%. [formula] The experimental results are shown in Table 9 and Figure 5.

[6] = tested on: human SSMC7721 liver cancer; experiment: Nude mice tumor transplanted from human SSMC7721 liver cancer (Example 56); conditions: for TGI (%): tumor growth inhibition
Procedure: as §1, with “cultured SSMC7721” for “cultured HCT-8”, “human liver” for “human colon”, “compound 37” for “compound 34”, “for 30” for “for 20”, “Table 10” for “Table 8”, “Figure 6. Table10” for “Figure 4.”

[7] = 5 mg/kg orally once a day for 24 days
[8] = 10 mg/kg orally once a day for 24 days
[9] = 20 mg/kg orally once a day for 24 days
[10] = 40 mg/kg orally once a day for 24 days
[11] = 2.5 mg/kg orally once a day for 24 days
[12] = 30 mg/kg orally once a day for 20 days
[13] = 60 mg/kg orally once a day for 20 days
[14] = 30x2 mg/kg orally twice a day with an interval of 6 hours
[15] = 60x2 mg/kg orally twice a day with an interval of 6 hours
[16] = 30 mg/kg orally once a day for 30 days
[17] = 60 mg/kg orally once a day for 30 days

COc1ccc2c(Oc3ccc4c(C(=O)Nc5ccccc5N)cccc4c3)ccnc2c1 [Compound 31, N-(2-aminophenyl)-6-(7-methoxyquinolin-4-yloxy)-1-naphthamide]
Tumor weight [1, 7]: 2.20 ± 0.57 g
Body weight (g) end [1, 7]: 24.6 ± 1.3 g
Body weight (g) start [1, 7]: 21.1 ± 0.6 g
Tumor weight [1, 8]: 2.13 ± 0.51 g
Body weight (g) end [1, 8]: 25.1 ± 1.3 g
Body weight (g) start [1, 8]: 19.9 ± 1.3 g
Tumor weight [1, 9]: 1.50 ± 0.41 g
Body weight (g) end [1, 9]: 24.2 ± 0.7 g
Body weight (g) start [1, 9]: 20.6 ± 1.1 g
TGI (%) [1, 9]: 64.3%
Tumor weight [1, 10]: 1.06 ± 0.54 g
Body weight (g) end [1, 10]: 22.6 ± 2.4 g
Body weight (g) start [1, 10]: 20.0 ± 0.9 g
TGI (%) [1, 10]: 74.8%
Body weight (g) end ([2]; 2.5 mg/kg orally once a day): 24.5 ± 1.1 g
Tumor weight ([2]; 2.5 mg/kg orally once a day): 2.18 ± 1.28 g
Body weight (g) start ([2]; 2.5 mg/kg orally once a day): 20.3 ± 0.8 g
TGI (%) ([2]; 2.5 mg/kg orally once a day): 54.5%
Body weight (g) end ([2]; 5 mg/kg orally once a day): 24.8 ± 1.5 g
Tumor weight ([2]; 5 mg/kg orally once a day): 0.78 ± 0.25 g
Body weight (g) start ([2]; 5 mg/kg orally once a day): 21.6 ± 1.4 g
TGI (%) ([2]; 5 mg/kg orally once a day): 83.8%
Body weight (g) end ([2]; 10 mg/kg orally once a day): 23.7 ± 0.8 g
Tumor weight ([2]; 10 mg/kg orally once a day): 0.46 ± 0.15 g
Body weight (g) start ([2]; 10 mg/kg orally once a day): 20.7 ± 1.1 g
TGI (%) ([2]; 10 mg/kg orally once a day): 90.3%
Body weight (g) end ([2]; 20 mg/kg orally once a day): 22.5 ± 1.6 g
Tumor weight ([2]; 20 mg/kg orally once a day): 0.19 ± 0.06 g
Body weight (g) start ([2]; 20 mg/kg orally once a day): 20.5 ± 1.3 g
TGI (%) ([2]; 20 mg/kg orally once a day): 96.1%
Tumor weight [3, 11]: 1.63 ± 0.70 g
Body weight (g) end [3, 11]: 23.2 ± 2.1 g
Body weight (g) start [3, 11]: 20.1 ± 0.9 g
TGI (%) [3, 11]: 51.7%
Tumor weight [3, 7]: 1.16 ± 0.55 g
Body weight (g) end [3, 7]: 24.8 ± 1.5 g
Body weight (g) start [3, 7]: 20.8 ± 1.2 g
TGI (%) [3, 7]: 65.4%
Tumor weight [3, 8]: 0.70 ± 0.45 g
Body weight (g) end [3, 8]: 23.6 ± 1.5 g
Body weight (g) start [3, 8]: 20.4 ± 1.6 g
TGI (%) [3, 8]: 79.2%
Tumor weight [3, 9]: 0.53 ± 0.28 g
Body weight (g) end [3, 9]: 21.0 ± 2.2 g
Body weight (g) start [3, 9]: 20.2 ± 1.7 g
TGI (%) [3, 9]: 84.4%

COc1ccc2c(Oc3ccc4c(C(=O)NCc5ccc(C(=O)Nc6ccccc6N)cc5)cccc4c3)ccnc2c1 [Compound 33, N-(4-((2-aminophenyl)carbamoyl)benzyl)-6-(7-methoxyquinolin-4-yloxy)-1-naphthamide]
Tumor weight [4, 12]: 2.31 ± 0.43 g
Body weight (g) end [4, 12]: 21.1 ± 2.2 g
Body weight (g) start [4, 12]: 19.0 ± 1.3 g
TGI (%) [4, 12]: 43.3%
Tumor weight [4, 13]: 1.98 ± 0.61 g
Body weight (g) end [4, 13]: 21.4 ± 1.5 g
Body weight (g) start [4, 13]: 19.4 ± 0.8 g
TGI (%) [4, 13]: 51.5%
Tumor weight [5, 14]: 0.73 ± 0.36 g
Body weight (g) end [5, 14]: 22.6 ± 1.6 g
Body weight (g) start [5, 14]: 21.1 ± 1.2 g
TGI (%) [5, 14]: 88.1%
Tumor weight [5, 15]: 0.45 ± 0.05 g
Body weight (g) end [5, 15]: 19.0 ± 1.8 g
Body weight (g) start [5, 15]: 20.1 ± 0.9 g
TGI (%) [5, 15]: 92.6%
Tumor weight [6, 16]: 1.63 ± 0.47 g
Body weight (g) end [6, 16]: 24.0 ± 1.7 g
Body weight (g) start [6, 16]: 20.8 ± 0.5 g
TGI (%) [6, 16]: 27.8%
Tumor weight [6, 17]: 1.48 ± 0.89 g
Body weight (g) end [6, 17]: 25.4 ± 2.8 g
Body weight (g) start [6, 17]: 21.4 ± 1.3 g
TGI (%) [6, 17]: 34.4%
